Laboratory results taken from PMC6278537, “Simultaneous Determination and Pharmacokinetics Study of Six Triterpenes in Rat Plasma by UHPLC-MS/MS after Oral Administration of Sanguisorba officinalis L. Extract” (Molecules, 2018).
Where two headings read alike, the source gives them in different places.

Key:
[1] = Stability of analytes in rat plasma under various storage conditions; assay type: in vitro ADME; settings: for Stability Post-Preparation: 12 h after sample preparation at 4 °C; for Stability Short-Term / Stability Long-Term / Stability Three Freeze-Thaw: rat plasma; for Stability Short-Term: room temperature 4 h; for Stability Long-Term: storage for 2 weeks; for Stability Three Freeze-Thaw: three freeze–thaw cycles at −20 °C
Description: The stability of six analytes in rat plasma was estimated under different storage conditions. […] Post-preparative stability of analytes also implied that there was no obvious degradation when samples were kept at 4 °C for 12 h. In addition, all compounds remained stable for two weeks at […].
The stability of six compounds in rat plasma including freeze and thaw stability (three freeze–thaw cycles at −20 °C), long-term stability (storage for 2 weeks at −80 °C), room temperature stability (storage for 4 h at ambient temperature), and post-preparation stability […] All stability testing QC samples were determined by using the calibration curve of freshly prepared standard samples.

[2] = Pharmacokinetic study in rats after single oral administration of S. officinalis extract (UHPLC-MS/MS of plasma); assay type: in vivo, Sprague-Dawley rats; settings: for Cmax / AUC(0-inf) / AUC(0-t) / Tmax / half-life: rat plasma, single oral dose of S. officinalis extract 0.015 g/kg, n = 12, mean ± SD; for time of first peak of mean plasma concentration-time curve (double-peak phenomenon) / time of second peak of mean plasma concentration-time curve (double-peak phenomenon): rats, after oral administration of S. officinalis extract, Figure 4
Description: The UHPLC-MS/MS method was successfully used in the pharmacokinetic studies of six analytes after single dose administration of S. officinalis extract in rats. Based on the body surface area calculations of people and the animals and equivalent dose conversion calculations, the dosage of the rats was 0.015 g/kg. The half-time (t1/2), maximum plasma concentration (Cmax), time to reach Cmax (Tmax), and area under concentration–time curve (AUC0→t and AUC0→∞) were calculated via non-compartmental analysis (Table 6). The pharmacokinetic parameters of six components were reckoned by means of non-compartmental analysis using DAS 2.0 (Shanghai, China).
The experimental protocol was permitted by the Animal Ethics Committee of Harbin Medical University and conformed to the principles for the Care and Use of Laboratory Animals. Twelve male Sprague-Dawley rats (Weight 200 ± 20 g) were provided by the Laboratory Animal Centre of Harbin Medical University (Harbin, China). Each rat was fasted for 12 h before giving the drug and had free water supply even during the experiment. The S. officinalis extract was dissolved in water. A single dose of the S. officinalis extract (0.015 g/kg) was administrated to the rats. Blood (0.3 mL) was gained from the retinal venous plexus at 0, 0.083, 0.25, 0.5 1.0, 1.5, 2.0, 3.0, 4.0, 6.0, 8.0, 12.0 and 24.0 h after dosing. The plasma was immediately separated by centrifugation at 12000 rpm for 5 min at […].
Ten microliters of IS (1040.0 ng/mL) solution and 100 μL of methanol were added to 100 μL aliquot of plasma sample and vortexed for 30 s. The mixture was extracted with 3 mL ethyl acetate by being vortex-mixed for 1 min. The supernatant was separated and evaporated to dryness by N2 blowing at 40 °C after centrifuging at 3800 rpm for 5 min. The residue was reconstituted with 100 μL of methanol, and then vortex-mixed for 2 min and filtered by a 0.22 μm nylon 66 organic membrane. This was followed by injection of 5 μL aliquot of the solution into the UHPLC-MS/MS system (Agilent Technologies, Santa Clara, CA, USA).
The maximum concentration (Cmax) and the time to attain it (Tmax) were observed directly from the measured data. The elimination rate constant (Ke) was calculated by linear regression of the terminal points in a semi-log plot of the plasma concentration against time. The elimination half-life (t1/2) was calculated using the formula t1/2 = 0.693/Ke. The area under plasma concentration–time curve (AUC0→t) to the last measurable plasma concentration (Ct) was estimated by using the linear trapezoidal rule. The area under the plasma concentration–time curve to time infinity (AUC0→∞) was calculated as: AUC0→∞ = AUC0→t + Ct/Ke. The pharmacokinetic parameters of six analytes were reckoned by non-compartmental analysis using DAS 2.0 (Mathematical Pharmacology Professional Committee of China, Shanghai, China).

[3] = male, Sprague-Dawley, rat, plasma, po, 0.015 g/kg, read-out: Cmax

Stability Post-Preparation ([1]; high QC spiked concentration) [% RE]	Stability Post-Preparation ([1]; low QC spiked concentration) [% RE]	Stability Post-Preparation ([1]; medium QC spiked concentration) [% RE]	Stability Short-Term ([1]; high QC spiked concentration) [% RE]	Stability Short-Term ([1]; low QC spiked concentration) [% RE]	Stability Short-Term ([1]; medium QC spiked concentration) [% RE]	Stability Long-Term ([1]; high QC spiked concentration) [% RE]	Stability Long-Term ([1]; low QC spiked concentration) [% RE]	Stability Long-Term ([1]; medium QC spiked concentration) [% RE]	Stability Three Freeze-Thaw ([1]; high QC spiked concentration) [% RE]	Stability Three Freeze-Thaw ([1]; low QC spiked concentration) [% RE]	Stability Three Freeze-Thaw ([1]; medium QC spiked concentration) [% RE]	Cmax [2, 3] [ng/mL]	AUC(0-inf) ([2]; male, Sprague-Dawley) [ng·h/mL]	AUC(0-t) ([2]; male, Sprague-Dawley) [ng·h/mL]	Tmax ([2]; male, Sprague-Dawley) [h]	half-life ([2]; male, Sprague-Dawley) [h]	Cmax [2] [ng/mL]	time of first peak of mean plasma concentration-time curve (double-peak phenomenon) [2] [h]	time of second peak of mean plasma concentration-time curve (double-peak phenomenon) [2] [h]	Compound
−3.03	8.48	5.23	2.56	−4.77	−3.67	3.06	9.86	6.95	2.28	−9.67	3.99	212 ± 11.8	794 ± 152	733 ± 94.1	0.58 ± 0.2	7.35 ± 3.95	211.5 ± 11.8	–	–	CC1CCC2(C(=O)O)CCC3(C)C(=CCC4C5(C)C(O)C(O)C(O)C(C)(C)C5CCC43C)C2C1(C)O (stereo not drawn) [V, 1β-hydroxyeuscaphic acid]
3.95	7.45	2.23	4.55	9.63	7.81	−6.75	4.88	2.71	2.07	6.80	3.84	315 ± 22.5	1300 ± 193	1210 ± 120	1.58 ± 0.2	7.32 ± 2.74	314.5 ± 22.5	–	–	C[C@@H]1CC[C@]2(C(=O)O[C@@H]3O[C@H](CO)[C@@H](O)[C@H](O)[C@H]3O)CC[C@]3(C)C(=CC[C@@H]4[C@@]5(C)C[C@@H](O)[C@H](O)C(C)(C)[C@@H]5CC[C@]43C)[C@@H]2[C@]1(C)O [IV, rosamultin]
4.85	3.18	9.78	3.26	−10.78	2.34	5.28	−2.07	2.79	−1.64	2.74	6.61	243 ± 19.9	1110 ± 98.1	1030 ± 73.4	1.17 ± 0.26	7.72 ± 1.22	243.2 ± 19.9	0.5 to 1.5	4 to 8	C=C1[C@H]2C3=CC[C@@H]4[C@@]5(C)C[C@@H](O)[C@@H](O)C(C)(C)[C@@H]5CC[C@@]4(C)[C@]3(C)CC[C@@]2(C(=O)O[C@@H]2O[C@H](CO)[C@@H](O)[C@H](O)[C@H]2O)CC[C@H]1C [VI, alpinoside]

Continued, molecule first:

Compound	Stability Post-Preparation ([1]; high QC spiked concentration) [% RE]	Stability Post-Preparation ([1]; low QC spiked concentration) [% RE]	Stability Post-Preparation ([1]; medium QC spiked concentration) [% RE]	Stability Short-Term ([1]; high QC spiked concentration) [% RE]	Stability Short-Term ([1]; low QC spiked concentration) [% RE]	Stability Short-Term ([1]; medium QC spiked concentration) [% RE]	Stability Long-Term ([1]; high QC spiked concentration) [% RE]	Stability Long-Term ([1]; low QC spiked concentration) [% RE]	Stability Long-Term ([1]; medium QC spiked concentration) [% RE]	Stability Three Freeze-Thaw ([1]; high QC spiked concentration) [% RE]	Stability Three Freeze-Thaw ([1]; low QC spiked concentration) [% RE]	Stability Three Freeze-Thaw ([1]; medium QC spiked concentration) [% RE]	Cmax [2, 3] [ng/mL]	AUC(0-inf) ([2]; male, Sprague-Dawley) [ng·h/mL]	AUC(0-t) ([2]; male, Sprague-Dawley) [ng·h/mL]	Tmax ([2]; male, Sprague-Dawley) [h]	half-life ([2]; male, Sprague-Dawley) [h]	Cmax [2] [ng/mL]	time of first peak of mean plasma concentration-time curve (double-peak phenomenon) [2] [h]	time of second peak of mean plasma concentration-time curve (double-peak phenomenon) [2] [h]
CC1=C2C3=CCC4C5(C)CCC(OC6OCC(O)C(O)C6O)C(C)(C)C5CCC4(C)C3(C)CCC2(C(=O)OC2OC(CO)C(O)C(O)C2O)CCC1C [III, 3β-[(α-L-arabinopyranosyl)oxy]-urs-12,18(19)-dien-28-oic acid β-D-glucopyranosyl ester]	1.10	−1.34	−2.48	−2.42	−5.54	−7.66	4.31	3.75	−5.18	−3.38	−7.72	−5.29	318 ± 47.6	1230 ± 193	1140 ± 150	1.33 ± 0.26	6.86 ± 2.91	317.9 ± 47.6	0.25	< 1.5
C[C@@H]1CC[C@]2(C(=O)O[C@@H]3O[C@H](CO)[C@@H](O)[C@H](O)[C@H]3O)CC[C@]3(C)C(=CC[C@@H]4[C@@]5(C)CC[C@H](O[C@@H]6OC[C@H](O)[C@H](O)[C@H]6O)C(C)(C)[C@@H]5CC[C@]43C)[C@@H]2[C@]1(C)O [I, ziyuglycoside I]	−9.95	−2.07	3.53	2.44	4.27	6.27	2.03	2.43	−6.57	2.51	6.07	10.19	745 ± 85.7	3320 ± 429	2880 ± 303	0.92 ± 0.2	11.6 ± 3.07	744.7 ± 85.7	0.5 to 1.5	4 to 8
CC1CCC2(C(=O)OC3OC(CO)C(O)C(O)C3O)CCC3(C)C(=CCC4C5(C)CCC(O)C(C)(C)C5CCC43C)C2C1(C)O [II, 3β,19α-dihydroxyurs-12-en-28-oic-acid 28-β-D-glucopyranosyl ester]	3.04	5.22	4.11	2.47	−5.94	4.60	2.24	−3.19	2.08	2.74	2.66	−2.95	527 ± 64	2660 ± 601	2300 ± 417	0.83 ± 0.26	8.99 ± 3.04	526.6 ± 64.0	0.5 to 1.5	4 to 8
